Laboratory results reported in patent US20240360178A1, “MACROCYCLIC IMMUNOMODULATORS” (Bristol-Myers Squibb Company, priority 2021, published 2024).
Positions of bridges follow the written chain, without caps; N, C: chain ends. Non-standard residues stand in square brackets, D forms with d. Residues, ends and D or L forms follow the SMILES beside them. *: point of attachment. Phe(3,4,5-F3) = N[C@@H](Cc1cc(F)c(F)c(F)c1)C(=O)O; Bip = N[C@@H](Cc1ccc(-c2ccccc2)cc1)C(=O)O; Ala(cPent) = N[C@@H](CC1CCCC1)C(=O)O; Ala(cPr) = N[C@@H](CC1CC1)C(=O)O; NMeF = CN[C@@H](Cc1ccccc1)C(=O)O; Cha = N[C@@H](CC1CCCCC1)C(=O)O; NMeN = CN[C@@H](CC(N)=O)C(=O)O; Tle = CC(C)(C)[C@H](N)C(=O)O; Carboxymethyl = O=C(O)C*; NMeA = CN[C@@H](C)C(=O)O; Sar = CNCC(=O)O

Biological target: T1, human PD-1 (Jurkat-PD-1 cells) / PE-labeled human PD-L1-Ig (Homo sapiens, UniProt Q15116)
T1 construct: expressed in transfected cells; host or cells: Jurkat cell line over-expressing human PD-1
Experiment: Jurkat-PD-1 Cell Binding High-Content Screening Assay (CBA); Jurkat hPD1-PDL1 assay
Conditions: Jurkat cell line over-expressing human PD-1; PE-labeled PD-L1-Ig 20 nM final; compound incubated 2 hours at 37° C.; read-out: Jurkat HPD1-PDL1 IC50
Procedure, shortened: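 Cell binding by imaging: Jurkat line stably over-expressing human PD-1, compound pre-exposure 2 h at 37° C, PE-conjugated PD-L1-Ig 20 nM final, medium DMEM containing 10% FCS.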

T1 sequence (Q15116 25-288): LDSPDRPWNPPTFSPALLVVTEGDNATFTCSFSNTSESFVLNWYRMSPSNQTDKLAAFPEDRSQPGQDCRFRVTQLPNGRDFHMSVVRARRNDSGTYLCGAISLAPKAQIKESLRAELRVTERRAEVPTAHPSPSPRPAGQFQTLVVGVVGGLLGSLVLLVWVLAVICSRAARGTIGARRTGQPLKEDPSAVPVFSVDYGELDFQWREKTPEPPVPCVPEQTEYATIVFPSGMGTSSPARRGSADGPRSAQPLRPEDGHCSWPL

IC50 [nM]	Structure (SMILES)
550	CC(C)C[C@@H]1NC(=O)[C@H](Cc2c[nH]c3ccccc23)NC(=O)[C@H](CC(=O)O)NC(=O)[C@H](Cc2ccc(O)cc2)NC(=O)[C@H](Cc2c[nH]c3ccccc23)NC(=O)CSC[C@@H](C(=O)NCC(N)=O)NC(=O)[C@H](CO)NC(=O)[C@H](C(C)C)NC(=O)[C@H](CC(C)C)NC(=O)[C@H](CC(N)=O)NC(=O)CN(C)C(=O)[C@H](C)N(C)C(=O)[C@H](C(C)C)NC(=O)[C@H](Cc2ccc(-c3ccccc3)cc2)NC1=O [Example 1135] ({CH2CO}-WYDWL[Bip]V[NMeA][Sar]NLVSCG-NH2; thioether N-14)
560	CC(C)C[C@@H]1NC(=O)[C@H](Cc2c[nH]c3ccccc23)NC(=O)[C@H](CC(=O)O)NC(=O)[C@H](Cc2ccc(O)cc2)NC(=O)[C@H](Cc2ccccc2)NC(=O)CSC[C@@H](C(=O)N[C@@H](C)C(N)=O)NC(=O)[C@H](CCC(N)=O)NC(=O)[C@H](C(C)C)NC(=O)[C@H](CC(C)C)NC(=O)[C@H](CC(N)=O)NC(=O)CN(C)C(=O)[C@H](C)N(C)C(=O)[C@H](C(C)C)NC(=O)[C@H](Cc2ccc(-c3ccccc3)cc2)NC1=O [Example 1136] ({CH2CO}-FYDWL[Bip]V[NMeA][Sar]NLVQCA-NH2; thioether N-14)
560	CC(C)C[C@@H]1NC(=O)[C@H](Cc2c[nH]c3ccccc23)NC(=O)[C@H](CC(=O)O)NC(=O)[C@H](Cc2ccc(O)cc2)NC(=O)[C@H](Cc2ccc(OCC(=O)O)cc2)NC(=O)CSC[C@@H](C(=O)NCC(N)=O)NC(=O)[C@H](CO)NC(=O)[C@H](C(C)C)NC(=O)[C@H](CC(C)C)NC(=O)[C@H](CC(N)=O)NC(=O)CN(C)C(=O)[C@H](C)N(C)C(=O)[C@H](C(C)C)NC(=O)[C@H](Cc2ccc(-c3ccccc3)cc2)NC1=O [Example 1137] ({CH2CO}-Y(Carboxymethyl)YDWL[Bip]V[NMeA][Sar]NLVSCG-NH2; thioether N-14)
570	COc1ccc(C[C@@H]2NC(=O)CSC[C@@H](C(=O)NCC(N)=O)NC(=O)[C@H](CO)NC(=O)[C@H](C(C)C)NC(=O)[C@H](CC(C)C)NC(=O)[C@H](CC(N)=O)NC(=O)CN(C)C(=O)[C@H](C)N(C)C(=O)[C@H](C(C)C)NC(=O)[C@H](Cc3ccc(-c4ccccc4)cc3)NC(=O)[C@H](CC(C)C)NC(=O)[C@H](Cc3c[nH]c4ccccc34)NC(=O)[C@H](CC(=O)O)NC(=O)[C@H](Cc3ccc(O)cc3)NC2=O)cc1 [Example 1138] ({CH2CO}-Y(Me)YDWL[Bip]V[NMeA][Sar]NLVSCG-NH2; thioether N-14)
590	COc1ccc(C[C@@H]2NC(=O)[C@H](Cc3ccccc3)NC(=O)CSC[C@@H](C(=O)N[C@@H](C)C(N)=O)NC(=O)[C@H](CO)NC(=O)[C@H](C(C)C)NC(=O)[C@H](CC(C)C)NC(=O)[C@H](CC(N)=O)NC(=O)CN(C)C(=O)[C@H](C)N(C)C(=O)[C@H](C(C)C)NC(=O)[C@H](Cc3ccc(-c4ccccc4)cc3)NC(=O)[C@H](CC(C)C)NC(=O)[C@H](Cc3c[nH]c4ccccc34)NC(=O)[C@H](CC(=O)O)NC2=O)cc1 [Example 1139] ({CH2CO}-FY(Me)DWL[Bip]V[NMeA][Sar]NLVSCA-NH2; thioether N-14)
600	CC(C)C[C@@H]1NC(=O)[C@H](Cc2c[nH]c3ccccc23)NC(=O)[C@H](CC(=O)O)NC(=O)[C@H](Cc2ccc(O)cc2)NC(=O)[C@H](CC(N)=O)NC(=O)CSC[C@@H](C(=O)NCC(N)=O)NC(=O)[C@H](CO)NC(=O)[C@H](C(C)C)NC(=O)[C@H](CC(C)C)NC(=O)[C@H](CC(N)=O)NC(=O)CN(C)C(=O)[C@H](C)N(C)C(=O)[C@H](C(C)C)NC(=O)[C@H](Cc2ccc(-c3ccccc3)cc2)NC1=O [Example 1140] ({CH2CO}-NYDWL[Bip]V[NMeA][Sar]NLVSCG-NH2; thioether N-14)
610	CC(C)C[C@@H]1NC(=O)CSC[C@@H](C(=O)NCC(N)=O)NC(=O)[C@H](CO)NC(=O)[C@H](C(C)C)NC(=O)[C@H](CC(C)C)NC(=O)[C@H](CC(N)=O)NC(=O)CN(C)C(=O)[C@H](C)N(C)C(=O)[C@H](C(C)C)NC(=O)[C@H](Cc2ccc(-c3ccccc3)cc2)NC(=O)[C@H](CC(C)C)NC(=O)[C@H](Cc2c[nH]c3ccccc23)NC(=O)[C@H](CC(=O)O)NC(=O)[C@H](Cc2ccc(O)cc2)NC1=O [Example 1141] ({CH2CO}-LYDWL[Bip]V[NMeA][Sar]NLVSCG-NH2; thioether N-14)
610	CC[C@H](C)[C@@H]1NC(=O)[C@H](CC(C)C)NC(=O)[C@H](CC(N)=O)NC(=O)CN(C)C(=O)[C@H](C)N(C)C(=O)[C@H](C(C)C)NC(=O)[C@H](Cc2ccc(-c3ccccc3)cc2)NC(=O)[C@H](CC(C)C)NC(=O)[C@H](Cc2c[nH]c3ccccc23)NC(=O)[C@H](CC(=O)O)NC(=O)[C@H](Cc2ccc(O)cc2)NC(=O)[C@H](Cc2ccccc2)NC(=O)CSC[C@@H](C(=O)NCC(N)=O)NC(=O)[C@H](CO)NC1=O [Example 1142] ({CH2CO}-FYDWL[Bip]V[NMeA][Sar]NLISCG-NH2; thioether N-14)
620	CC(C)C[C@@H]1NC(=O)[C@H](CCCNC(=N)N)NC(=O)[C@H](Cc2ccccc2)N(C)C(=O)[C@H](C)N(C)C(=O)[C@H](CCCNC(=N)N)NC(=O)[C@H](Cc2ccc(-c3ccccc3)cc2)NC(=O)[C@H](C(C)C)NC(=O)[C@H](Cc2c[nH]c3ccccc23)NC(=O)[C@H](CC(=O)O)NC(=O)[C@H](Cc2ccc(O)cc2)NC(=O)[C@H](Cc2ccccc2)NC(=O)CSC[C@@H](C(=O)NCC(N)=O)NC(=O)[C@H](CO)NC(=O)[C@H](C(C)(C)C)NC1=O [Example 1143] ({CH2CO}-FYDWV[Bip]R[NMeA][NMeF]RL[Tle]SCG-NH2; thioether N-14)
630	CC(C)C[C@@H]1NC(=O)[C@H](Cc2c[nH]c3ccccc23)NC(=O)[C@H](CC(=O)O)NC(=O)[C@H](Cc2ccc(O)cc2)NC(=O)[C@H](Cc2ccccc2)NC(=O)CSC[C@@H](C(=O)N[C@@H](C)C(N)=O)NC(=O)[C@H](CO)NC(=O)[C@H](C(C)C)NC(=O)[C@H](CC2CC2)NC(=O)[C@H](CC(N)=O)NC(=O)CN(C)C(=O)[C@H](C)N(C)C(=O)[C@H](C(C)C)NC(=O)[C@H](Cc2ccc(-c3ccccc3)cc2)NC1=O [Example 1144] ({CH2CO}-FYDWL[Bip]V[NMeA][Sar]N[Ala(cPr)]VSCA-NH2; thioether N-14)
640	CC(C)C[C@@H]1NC(=O)[C@H](CC(N)=O)NC(=O)CN(C)C(=O)[C@H](C)N(C)C(=O)[C@H](C(C)C)NC(=O)[C@H](Cc2ccc(-c3ccccc3)cc2)NC(=O)[C@H](CC2CCCCC2)NC(=O)[C@H](Cc2c[nH]c3ccccc23)NC(=O)[C@H](CC(=O)O)NC(=O)[C@H](Cc2ccc(O)cc2)NC(=O)[C@H](Cc2ccccc2)NC(=O)CSC[C@@H](C(=O)NCC(N)=O)NC(=O)[C@H](CO)NC(=O)[C@H](C(C)C)NC1=O [Example 1145] ({CH2CO}-FYDW[Cha][Bip]V[NMeA][Sar]NLVSCG-NH2; thioether N-14)
650	CC(C)C[C@@H]1NC(=O)[C@H](Cc2c[nH]c3ccccc23)NC(=O)[C@H](CC(=O)O)NC(=O)[C@H](Cc2cc(F)c(F)c(F)c2)NC(=O)[C@H](Cc2ccccc2)NC(=O)CSC[C@@H](C(=O)N[C@@H](C)C(N)=O)NC(=O)[C@H](CO)NC(=O)[C@H](C(C)C)NC(=O)[C@H](CC(C)C)NC(=O)[C@H](CC(N)=O)NC(=O)CN(C)C(=O)[C@H](C)N(C)C(=O)[C@H](C(C)C)NC(=O)[C@H](Cc2ccc(-c3ccccc3)cc2)NC1=O [Example 1146] ({CH2CO}-F[Phe(3,4,5-F3)]DWL[Bip]V[NMeA][Sar]NLVSCA-NH2; thioether N-14)
660	CC(C)C[C@@H]1NC(=O)[C@H](CC(N)=O)NC(=O)CN(C)C(=O)[C@H](C)N(C)C(=O)[C@H](C(C)C)NC(=O)[C@H](Cc2ccc(-c3ccccc3)cc2)NC(=O)[C@H](CC2CCCC2)NC(=O)[C@H](Cc2c[nH]c3ccccc23)NC(=O)[C@H](CC(=O)O)NC(=O)[C@H](Cc2ccc(O)cc2)NC(=O)[C@H](Cc2ccccc2)NC(=O)CSC[C@@H](C(=O)N[C@@H](C)C(N)=O)NC(=O)[C@H](CO)NC(=O)[C@H](C(C)C)NC1=O [Example 1147] ({CH2CO}-FYDW[Ala(cPent)][Bip]V[NMeA][Sar]NLVSCA-NH2; thioether N-14)
670	CC(C)C[C@@H]1NC(=O)[C@H](Cc2c[nH]c3ccccc23)NC(=O)[C@H](CC(=O)O)NC(=O)[C@H](Cc2ccc(O)cc2)NC(=O)[C@H](Cc2ccccc2)NC(=O)CSC[C@@H](C(=O)NCC(N)=O)NC(=O)[C@H](CO)NC(=O)[C@H](C(C)C)NC(=O)[C@H](CC(C)C)NC(=O)[C@H](CC(N)=O)NC(=O)[C@H](CC(N)=O)N(C)C(=O)[C@H](C)N(C)C(=O)[C@H](C(C)C)NC(=O)[C@H](Cc2ccc(-c3ccccc3)cc2)NC1=O [Example 1148] ({CH2CO}-FYDWL[Bip]V[NMeA][NMeN]NLVSCG-NH2; thioether N-14)
690	CC(C)C[C@@H]1NC(=O)[C@H](CC(N)=O)NC(=O)CN(C)C(=O)[C@H](C)N(C)C(=O)[C@H](C(C)C)NC(=O)[C@H](Cc2ccc(-c3ccccc3)cc2)NC(=O)[C@H](C(C)C)NC(=O)[C@H](Cc2c[nH]c3ccccc23)NC(=O)[C@H](CC(=O)O)NC(=O)[C@H](Cc2ccc(O)cc2)NC(=O)[C@H](Cc2ccccc2)NC(=O)CSC[C@@H](C(=O)N[C@@H](C)C(N)=O)NC(=O)[C@H](CO)NC(=O)[C@H](C(C)C)NC1=O [Example 1149] ({CH2CO}-FYDWV[Bip]V[NMeA][Sar]NLVSCA-NH2; thioether N-14)
690	CC(C)C[C@@H]1NC(=O)[C@H](Cc2c[nH]c3ccccc23)NC(=O)[C@H](CC(=O)O)NC(=O)[C@H](Cc2ccc(O)cc2)NC(=O)[C@H](Cc2cnc[nH]2)NC(=O)CSC[C@@H](C(=O)NCC(N)=O)NC(=O)[C@H](CO)NC(=O)[C@H](C(C)C)NC(=O)[C@H](CC(C)C)NC(=O)[C@H](CC(N)=O)NC(=O)CN(C)C(=O)[C@H](C)N(C)C(=O)[C@H](C(C)C)NC(=O)[C@H](Cc2ccc(-c3ccccc3)cc2)NC1=O [Example 1150] ({CH2CO}-HYDWL[Bip]V[NMeA][Sar]NLVSCG-NH2; thioether N-14)
